According to US8586611B2 (priority 2005, dated 2013):
Read-outs that look alike come from different tables or passages of the source.

Key:
Assay type in all cases: in vivo
[1] = test system: Phytophthora infestans; assay: whole plant or invertebrate; conditions: for Test D disease rating (100 = 100% disease control, 0 = no disease control): tomato late blight
[2] = test system: Plasmopara viticola; assay: Test B: grape downy mildew, spray 24 h after inoculation (disease rating, 100 = 100% disease control)
How it was run: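 Grape seedlings were inoculated with Plasmopara viticola and held 24 h saturated at 20 °C, then sprayed to run-off with compound suspension (acetone/water with 250 ppm Trem 014; 200 ppm ≈ 500 g/ha). After 5 days at 20 °C and 24 h saturation, disease was rated from 0 to 100% control versus untreated.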

[3] = test system: Erysiphe graminis f. sp. tritici; assay: Test E: wheat powdery mildew, spray the day before inoculation (disease rating, 100 = 100% disease control)
How it was run: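 Wheat seedlings sprayed to run-off with compound suspended in acetone/water 50/50 with 250 ppm Trem 014 (200 ppm equivalent to 500 g/ha); inoculated next day with Erysiphe graminis f. sp. tritici spore dust. Kept 7 days at 20° C, then rated 0–100% disease control versus controls.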

[4] = test system: Pseudoperonospora cubensis; assay: Test F: cucumber downy mildew, DMSO/acetone/water test suspension, spray the day before inoculation (disease rating, 100 = 100% disease control)
Excerpt: The test compounds were first dissolved in dimethyl sulfoxide (DMSO) in an amount equal to 4% of the final volume and then suspended at the desired concentration (in ppm) in acetone and purified water (30/70 mix by volume). The resulting test suspensions were then used in test F. Spraying a 250 ppm test suspension on the test plants was the equivalent of a rate of 250 g/ha.
The test suspension was sprayed on cucumber seedlings. The following day the seedlings were inoculated with a spore suspension of Pseudoperonospora cubensis (the causal agent of cucumber downy mildew) and incubated in a saturated atmosphere at 20° C. for 24 h, and then moved to a growth chamber at 20° C. for 6 days, after which disease ratings were made.
Results for Tests A-F are given in Table A. In the table, a rating of 100 indicates 100% disease control and a rating of 0 indicates no disease control (relative to the controls). A dash (-) indicates no test results.

[5] = test system: Phytophthora infestans; assay: whole plant or invertebrate; conditions: for Test C disease rating (100 = 100% disease control, 0 = no disease control): tomato late blight
[6] = spray 17 h after inoculation, compounds without asterisk (not 40 or 10 ppm)
[7] = spray 24 h after inoculation, compounds without asterisk (not 40 or 10 ppm)
[8] = spray the day before inoculation, compounds without asterisk (not 40 or 10 ppm)
[9] = DMSO/acetone/water suspension, spray the day before inoculation, compounds without asterisk
[10] = sprayed 17 h after inoculation, unmarked compounds (no asterisk, not 40 or 10 ppm)
[11] = sprayed 24 h after inoculation, unmarked compounds (no asterisk, not 40 or 10 ppm)
[12] = sprayed the day before inoculation, 7 days at 20° C., unmarked compounds (no asterisk, not 40 or 10 ppm)
[13] = sprayed the day before inoculation, unmarked compounds (no asterisk, not 40 or 10 ppm)

Structure (SMILES) | Test D disease rating (100 = 100% disease control, 0 = no disease control) [1, 6] [%] | Test B disease rating (100 = 100% disease control, 0 = no disease control) [2, 7] [%] | Test E disease rating (100 = 100% disease control, 0 = no disease control) [3, 8] [%] | Test F disease rating (100 = 100% disease control, 0 = no disease control) [4, 9] [%] | Test C disease rating (100 = 100% disease control, 0 = no disease control) [5, 8] [%] | further results
Cc1cc(C(F)(F)F)nn1CC(=O)N1CCC(c2nc(C(=O)N(C)C3CCCc4ccccc43)cs2)CC1 (stereo not drawn) [Compound 188, N-methyl-2-[1-[[5-methyl-3-(trifluoromethyl)-1H-pyrazol-1-yl]acetyl]-4-piperidinyl]-N-(1,2,3,4-tetrahydro-1-naphthalenyl)-4-thiazolecarboxamide] |  |  |  |  |  | pest or weed control at 10 ppm ([1]; Phytophthora infestans, in Solanum lycopersicum, topical, 96 h, read-out: Test D disease rating (100 = 100% disease control, 0 = no disease control)): 99%; pest or weed control at 10 ppm ([2]; Plasmopara viticola, 144 h, spray 24 h after inoculation, tested at 10 ppm, read-out: Test B disease rating (100 = 100% disease control, 0 = no disease control)): 99%; pest or weed control at 10 ppm ([3]; Blumeria graminis, topical, 168 h, spray the day before inoculation, tested at 10 ppm, read-out: Test E disease rating (100 = 100% disease control, 0 = no disease control)): 84%; pest or weed control at 10 ppm ([4]; Pseudoperonospora cubensis, topical, 168 h, DMSO/acetone/water suspension, spray the day before inoculation, compound marked as tested at 10 ppm, read-out: Test F disease rating (100 = 100% disease control, 0 = no disease control)): 99%; pest or weed control at 10 ppm ([5]; Phytophthora infestans, in Solanum lycopersicum, 144 h, read-out: Test C disease rating (100 = 100% disease control, 0 = no disease control)): 100%
Cc1ccc(C)c(CC(=O)N2CCN(c3nc(C(=O)N(C)[C@H](C)c4ccccc4)co3)CC2)c1 [compound 50] | 99 | 55 | 0 | 100 | 100 | 
C[C@H](c1ccccc1)N(C)C(=O)c1coc(N2CCN(C(=O)Cc3cc(C(F)(F)F)ccc3Cl)CC2)n1 [compound 51] | 96 | 20 | 0 | 100 | 100 | 
Cc1cccc(CC(=O)N2CCN(c3nc(C(=O)N(C)[C@H](C)c4ccccc4)co3)CC2)c1 [compound 52] | 74 | 20 | 0 | 96 | 100 | 
C[C@H](c1ccccc1)N(C)C(=O)c1coc(N2CCN(C(=O)Cc3cccc(Br)c3)CC2)n1 [compound 54] | 69 | 11 | 0 | 50 | 100 | 
C[C@H](c1ccccc1)N(C)C(=O)c1coc(N2CCN(C(=O)Cc3cccc(C(F)(F)F)c3)CC2)n1 [compound 55] | 92 | 7 | 0 | 47 | 100 | 
Cc1ccc(C)c(CC(=O)N2CCC(c3nc(C(=O)N(C)[C@H](C)c4ccccc4F)cs3)CC2)c1 [compound 57] | 94 | 100 | 50 | 99 | 100 | 
COc1ccc([C@@H](C)N(C)C(=O)c2csc(C3CCN(C(=O)Cc4cc(C)ccc4C)CC3)n2)cc1 [compound 59] | 63 | 84 | 21 | 93 | 98 | 
Cc1ccc(C)c(CC(=O)N2CCC(c3nc(C(=O)N(C)[C@H](C)c4ccc(Cl)cc4)cs3)CC2)c1 [compound 60] | 42 | 95 | 67 | 47 | 93 | 
Cc1ccc([C@@H](C)N(C)C(=O)c2csc(C3CCN(C(=O)Cc4cc(C)ccc4C)CC3)n2)cc1 [compound 62] | 24 | 92 | 29 | 43 | 92 | 
Cc1ccc(C)c(CC(=O)N2CCC(c3nc(C(=O)N(C)[C@H](C)c4ccc(Br)cc4)cs3)CC2)c1 [compound 63] | 93 | 100 | 0 | 99 | 100 | 
Cc1ccc(C)c(CC(=O)N2CCC(c3nc(C(=O)N(C)[C@H](C)c4ccc(F)cc4)cs3)CC2)c1 [compound 64] | 95 | 100 | 92 | 93 | 100 | 
Cc1cc(C)n(CC(=O)N2CCC(c3nc(C(=O)N(C)[C@H](C)c4ccccc4)cs3)CC2)n1 [compound 65] | 100 | 92 | 0 | 100 | 100 | 
COc1ccc(CCNC(=O)c2csc(C3CCN(C(=O)Cc4cc(C)ccc4C)CC3)n2)cc1OC [compound 288] |  |  |  |  |  | Test D disease rating (100 = 100% disease control, 0 = no disease control) [1, 10]: 76; Test B disease rating (100 = 100% disease control, 0 = no disease control) [2, 11]: 73; Test E disease rating (100 = 100% disease control, 0 = no disease control) [3, 12]: 0; Test F disease rating (100 = 100% disease control, 0 = no disease control) ([4]; DMSO/acetone/water test suspension, sprayed the day before inoculation, unmarked compounds (no asterisk)): 95
Cc1cc(C(F)(F)F)nn1CC(=O)N1CCC(c2nc(C(=O)N3CCCC(C)(C)C3)cs2)CC1 [compound 313] |  |  |  |  |  | Test D disease rating (100 = 100% disease control, 0 = no disease control) [1, 10]: 92; Test B disease rating (100 = 100% disease control, 0 = no disease control) [2, 11]: 98; Test E disease rating (100 = 100% disease control, 0 = no disease control) [3, 12]: 0; Test C disease rating (100 = 100% disease control, 0 = no disease control) [5, 13]: 99
Cc1cc(C(F)(F)F)nn1CC(=O)N1CCC(c2nc(C(=O)NCCc3ccccc3)cs2)CC1 [compound 314] |  |  |  |  |  | Test D disease rating (100 = 100% disease control, 0 = no disease control) [1, 10]: 99; Test B disease rating (100 = 100% disease control, 0 = no disease control) [2, 11]: 98; Test E disease rating (100 = 100% disease control, 0 = no disease control) [3, 12]: 0; Test C disease rating (100 = 100% disease control, 0 = no disease control) [5, 13]: 100
Cc1cc(C(F)(F)F)nn1CC(=O)N1C2CCC1CC(c1nc(C(=O)N(C)[C@@H]3CCCc4ccccc43)cs1)C2 (stereo partly drawn) [compound 316] |  |  |  |  |  | Test D disease rating (100 = 100% disease control, 0 = no disease control) [1, 10]: 97; Test B disease rating (100 = 100% disease control, 0 = no disease control) [2, 11]: 97; Test E disease rating (100 = 100% disease control, 0 = no disease control) [3, 12]: 0; Test C disease rating (100 = 100% disease control, 0 = no disease control) [5, 13]: 100
